{"source": "patent US11274131B2", "about": "“IgM-mediated receptor clustering and cell modulation” (MAYO FOUNDATION FOR MEDICAL EDUCATION AND RESEARCH, priority 2007, dated 2022)", "tested_on": "human DC", "test": "Immunoblot of phosphorylation of signaling intermediates in human DC", "format": "cell-based", "procedure": "FIGS. 2A to 2G are a series of pictures showing that a kinase activated pathway regulates antibody-induced antigen uptake by matured DC. Matured human monocyte-derived DC were treated with the MTAb B7-DC XAb for varying time periods and evaluated for the phosphorylation status of select signaling pathway intermediates by immunoprecipitation with DAP12 (MC457), Syk (4D10), and PLCγ1 (MC490) reactive antibodies followed by western blot analysis using the phosphotyrosine reactive antibody 4G10 as a probe (FIGS. 2A-2C). Samples of the cells blocked with indicated concentration of piceatannol (FIG. 2D) or with […] of piceatannol (FIG. 2E) were analyzed for phosphorylation of Syk (FIG. 2D) and PLCγ1 (FIG. 2E). To investigate the functional importance of these signaling intermediates in the regulation of antigen uptake by matured DC activated with B7-DC XAb, varying concentrations of pharmacologic inhibitors were used to block the activity of p72Syk (piceatannol) and PLCγ1 (U73122) (FIGS. 2F and 2G, respectively). Antigen uptake was assessed by pulsing cultures with FITC-conjugated ovalbumin and measuring intracellular fluorescence 16 hours later in CD11c positive cells by flow cytometry.\nIn experiments involving assessment of the phosphorylation status of various protein kinases using whole cell lysate, dendritic cells of mouse or human origin or Jurkat cells were stimulated at the indicated times with control antibody or B7-DC XAb, and were lysed on ice for 10 minutes in 1 ml buffer containing 20 mM Tris-HCl, 40 mM NaCl, 5 mM EDTA, 50 mM NaF, 30 mM Na4P2O7, 0.1% BSA, 1 mM Na3VO4, 1 mM PMSF, 5 μg/ml aprotinin, 10 μg/ml leupeptin, and 1% Triton X-100. Cellular debris was removed by centrifugation at 20,800×g for 5 minutes at 4° C. and the supernatant was used in SDS-PAGE analysis for phosphorylated tyrosine proteins. For immunoprecipitation, antibody against mouse Syk (4D10) or PLC yl (MC490) or DAP12 (MC457) at 10 μg per sample was bound to protein A-Sepharose beads at 4° C. for 2 hours under constant rotation. Supernatants from cell lysate after stimulation were incubated with antibody coupled beads for 2 hours at 4° C. with constant rotation. […] Tyrosine-phosphorylated proteins were detected using the anti-phosphotyrosine specific antibody, 4G10, followed by goat anti-mouse IgG coupled to Horse Radish Peroxidase (Santa Cruz Biotechnology) and the SuperSignal detection system (Pierce Biotechnology, Rockford, Ill.). […] The supernatants were resolved by SDS-PAGE, probed with anti-mouse TREM-2 antibody (237920) and detected by Goat-anti mouse antibody coupled to HRP, or probed with affinity purified anti-mouse CD40 (1C10) and detected by Goat-anti mouse antibody coupled to HRP."}
{"substance": "B7-DC XAb: human monoclonal IgM from a Waldenstrom's macroglobulinemia patient that binds and cross-links B7-DC on DC", "values": [{"measurement": "phosphorylation of PLCγ1", "setting": "human DC", "value": "concomitant with the phosphorylation of PLCγ1"}, {"measurement": "phosphorylation of cellular proteins", "setting": "human DC treated with antibody", "value": "induced as early as one minute after treatment"}, {"measurement": "phosphorylation of DAP12", "setting": "human DC, cross-linking B7-DC", "value": "rapidly phosphorylated"}, {"measurement": "phosphorylation of Syk", "setting": "human DC, immunoprecipitated Syk", "value": "revealed phosphorylation of the protein tyrosine kinase"}]}
